The record followed here is paper PMC9181926, “Synthesis and Antiproliferative Activity of Novel Dehydroabietic Acid-Chalcone Hybrids” (Molecules, 2022).

In data set [1] the test system is MDA-MB-231 cells. In words: Antiproliferation assay (cell counting, 48 h) in MDA-MB-231 breast cancer cells. In kind it is cell-based, human. As to conditions: for IC50: MDA-MB-231 cells, 48 h incubation, cell counting; for Selectivity Index for MDA-MB-231: FB IC50 relative to MDA-MB-231 IC50. From the text:
(§1) Regarding the different characteristics of the used breast cancer cell lines, we can notice that MDA-MB-231 and Hs578T are triple negative.
(§2) Primary skin normal fibroblasts were kindly provided by Prof. Emer.

The subject of data set [2] is MCF-7 cells. The experiment in a line: Antiproliferation assay (cell counting, 48 h) in MCF-7 breast cancer cells. The class given is cell-based, human. The settings on record: for IC50: MCF-7 cells, 48 h incubation, cell counting; for Selectivity Index for MCF-7: FB IC50 relative to MCF-7 IC50.
Text: as §1, §2

For data set [3], the system named is Hs578T cells. The experiment in a line: Antiproliferation assay (cell counting, 48 h) in Hs578T breast cancer cells. The class given is cell-based, human. The settings on record: for IC50: Hs578T cells, 48 h incubation, cell counting; for Selectivity Index for Hs578T: FB IC50 relative to Hs578T IC50.
Text: as §1, §2

For data set [4], the system named is normal primary fibroblasts (FB). The experiment in a line: cells. The class given is cell-based, human. The settings on record: for IC50: normal primary human fibroblasts, 48 h incubation, cell counting.
Text: as §2

The subject of data set [5] is MDA-MB-231, MCF-7 and Hs578T breast cancer cell lines.
Description: (§3) The antiproliferative activity of the synthesized DHA-chalcone hybrids 31–53 was evaluated using three characteristic breast carcinoma cell lines, MDA-MB-231, MCF-7, and Hs578T. For the sake of comparison, 5-FU, a widely used drug in clinical practice, was selected as positive control.
(§4) MCF-7 (ER-positive breast cancer cells, epithelial, low metastatic), MDA-MB-231, and Hs578T (triple negative breast cancer cells, mesenchymal, high metastatic) were obtained from American Type Culture Collection (ATCC) and cultured with DMEM high glucose/10% Fetal Bovine Serum (FBS) (supplied by Biosera). […] Cancer cells were seeded in 24 well plates (30,000 MCF-7 cells/well, 30.000 MDA-MB-231 cells/well, 25,000 Hs578T cells/well) and fibroblasts in 12 well plates (40,000 cells/well) and incubated in proper medium completed with 10% FBS for 48 h. Compounds were diluted in DMSO and working dilutions were prepared ranging from 5 to 200 μΜ for cancer cells and 1 to 100 μM for fibroblasts. All cells were incubated with working dilutions for 48 h. Afterwards, cells were detached by trypsinization, centrifuged at 3000 rpm for 3 min, and counted using a hemocytometer. Antiproliferation values were then calculated relatively to cancer or normal cells treated only with DMSO. […] IC50 values were calculated using GraphPad Prism 5 (Graph Pad Software).
The test system is the same in data set [6]. In words: cells. As to conditions: Homo sapiens, read-out: IC50 against all the cancer cell lines.
Description: as §3, §4

Where “and” joins values, the source holds several entries; their conditions need not be identical. Identical values can stand only once.

Broadly, the IC50 is the concentration at which inhibition is half-maximal. For the molecule “(1R,4aS)-methyl 7-((E)-3-(1H-pyrrol-3-yl)acryloyl)-6-hydroxy-1,4a-dimethyl-1,2,3,4, 4a,9,10,10a-octahydrophenanthrene-1-carboxylate [Compound 43]”, the 50% inhibitory concentration (IC50) was found to be 29.2 ± 3.26 µM in data set [1], 4.29 ± 0.29 µM in data set [2], 16.6 ± 2.83 µM in data set [3] and 33 ± 6.1 µM in data set [4].
For the molecule `COC(=O)[C@]1(C)CCC[C@]2(C)c3cc(O)c(/C=C/C(=O)c4cnccn4)cc3CCC12` (stereo partly drawn) [Compound 51, (1R,4aS)-methyl 6-hydroxy-1,4a-dimethyl-7-((E)-3-oxo-3-(pyrazin-2-yl)prop-1-en-1-yl)-1,2,3,4,4a,9,10,10a-octahydrophenanthrene-1-carboxylate], the “Selectivity Index for MDA-MB-231” value in data set [1] came to 1.14. For the same molecule, the IC50 in data set [1] (Homo sapiens) is 18 ± 2.78 µM; in data set [2] (Homo sapiens, MCF7), greater than 75 µM; in data set [3] (Homo sapiens, Hs-578T) it was 23.11 ± 0.04 µM; in data set [4] (Fibroblast), 20.5 ± 2.46 µM. Besides, in data set [3], the “Selectivity Index for Hs578T” value stood at 0.88.
For `COC(=O)[C@]1(C)CCC[C@]2(C)c3cc(O)c(C(=O)/C=C/c4ccsc4)cc3CCC12` (stereo partly drawn) [Compound 44, (1R,4aS)-methyl 6-hydroxy-1,4a-dimethyl-7-((E)-3-(thiophen-3-yl)acryloyl)-1,2,3,4,4a,9,10,10a-octahydrophenanthrene-1-carboxylate], the “Selectivity Index for MDA-MB-231” value in data set [1] was determined as 1.75. Besides, the IC50 in data set [1] (Homo sapiens) is 25.2 ± 0.84 µM; in data set [2] (Homo sapiens, MCF7), 3.45 ± 0.36 µM; in data set [3] (Homo sapiens, Hs-578T) it was 21.5 ± 1.2 µM; in data set [4] (Fibroblast) it was 44 ± 1.84 µM. Besides, the “Selectivity Index for MCF-7” value in data set [2] stood at 12.76. The “Selectivity Index for Hs578T” value in data set [3] is reported as 2.05.
Take `COC(=O)[C@]1(C)CCC[C@]2(C)c3cc(O)c(C(=O)/C=C/c4cccnc4)cc3CCC12` (stereo partly drawn) [Compound 33, (1R,4aS)-methyl 6-hydroxy-1,4a-dimethyl-7-((E)-3-(pyridin-3-yl)acryloyl)-1,2,3,4,4a, 9,10,10a-octahydrophenanthrene-1-carboxylate]: in data set [5], the “times less toxic than 5-FU (selectivity indices)” value is 2.2-3 times. Further, the “times more active than 5-FU” value in data set [5] is 2.4-3.3 times. Besides, the “Selectivity Index for MDA-MB-231” value in data set [1] is 1.47. Moreover, the 50% inhibitory concentration (IC50) in data set [1] (Homo sapiens) was 5.89 ± 0.77 µM; in data set [2] (Homo sapiens, MCF7) it was 2.21 ± 0.4 µM; in data set [6] it was 2.21 to 5.89 µM; in data set [3] (Homo sapiens, Hs-578T) it was 2.48 ± 0.13 µM; in data set [4] (Fibroblast), 8.68 ± 0.88 µM. Moreover, the “Selectivity Index for MCF-7” value in data set [2] was 3.93. For the same molecule, the “Selectivity Index for Hs578T” value in data set [3] was 3.50.
Regarding `COC(=O)[C@]1(C)CCC[C@]2(C)c3cc(O)c(C(=O)/C=C/c4cnc5ccccc5c4)cc3CCC12` (stereo partly drawn) [Compound 39, (1R,4aS)-methyl 6-hydroxy-1,4a-dimethyl-7-((E)-3-(quinolin-3-yl)acryloyl)-1,2,3,4,4a, 9,10,10a-octahydrophenanthrene-1-carboxylate], the IC50 is greater than 75 µM in data set [1] (Homo sapiens); 11.5 ± 1.02 µM in data set [2] (Homo sapiens, MCF7); 15.7 ± 2.74 µM in data set [3] (Homo sapiens, Hs-578T); 32.9 ± 2.27 µM in data set [4] (Fibroblast). Also, in data set [2], the “Selectivity Index for MCF-7” value worked out at 2.86. The “Selectivity Index for Hs578T” value in data set [3] was 2.09.
As to `O=c1[nH]cc(F)c(=O)[nH]1` [Compound 5-FU, 5-fluorouracil, reference compound], the “Selectivity Index for MDA-MB-231” value in data set [1] is 0.49. Moreover, the concentration for half-maximal inhibition (IC50) in data set [1] (Homo sapiens) came out at 19.2 ± 0.39 µM; in data set [2] (Homo sapiens, MCF7), 5.37 ± 1.16 µM; in data set [3] (Homo sapiens, Hs-578T), 7.38 ± 2.49 µM; in data set [4] (Fibroblast), 9.43 ± 0.8 µM. In data set [2], the “Selectivity Index for MCF-7” value was 1.76. Further, the “Selectivity Index for Hs578T” value in data set [3] is listed as 1.28.
Regarding `COC(=O)[C@]1(C)CCC[C@]2(C)c3cc(O)c(C(=O)/C=C/c4ccc5ccccc5n4)cc3CCC12` (stereo partly drawn) [Compound 38, (1R,4aS)-methyl 6-hydroxy-1,4a-dimethyl-7-((E)-3-(quinolin-2-yl)acryloyl)-1,2,3,4,4a, 9,10,10a-octahydrophenanthrene-1-carboxylate], the “Selectivity Index for MDA-MB-231” value in data set [1] is reported as 2.20. The 50% inhibitory concentration (IC50) in data set [1] (Homo sapiens) is 73 ± 2.31 µM; in data set [2] (Homo sapiens, MCF7) it was 7.06 ± 1.71 µM; in data set [3] (Homo sapiens, Hs-578T), greater than 75 µM; in data set [4] (Fibroblast) it was 161 ± 13.1 µM. Further, the “Selectivity Index for MCF-7” value in data set [2] was 22.7 and 22.75. The “times less toxic than 5-FU” value in data set [4] came to 12.9 times.
`COC(=O)[C@]1(C)CCC[C@]2(C)c3cc(O)c(/C=C/C(=O)c4ccccn4)cc3CCC12` (stereo partly drawn) [Compound 49, (1R,4aS)-methyl 6-hydroxy-1,4a-dimethyl-7-((E)-3-oxo-3-(pyridin-2-yl)prop-1-en-1-yl)-1,2,3,4,4a,9,10,10a-octahydrophenanthrene-1-carboxylate]: in data set [1], the “Selectivity Index for MDA-MB-231” value amounted to 1.06. Moreover, the IC50 worked out at 22.4 ± 0.81 µM in data set [1] (Homo sapiens); 45.9 ± 1.52 µM in data set [2] (Homo sapiens, MCF7); 17.1 ± 2.13 µM in data set [3] (Homo sapiens, Hs-578T); 23.8 ± 1.07 µM in data set [4] (Fibroblast). Also, the “Selectivity Index for MCF-7” value in data set [2] amounted to 0.52. For the same molecule, the “Selectivity Index for Hs578T” value in data set [3] was found to be 1.39.
On to “(1R,4aS)-methyl 7-((E)-3-(2-chloroquinolin-4-yl)acryloyl)-6-hydroxy-1,4a-dimethyl-1,2,3,4, 4a,9,10,10a-octahydrophenanthrene-1-carboxylate [Compound 41]”, for which the 50% inhibitory concentration (IC50) in data set [1] came out at 7.12 ± 0.2 µM; in data set [2], 3.99 ± 0.15 µM; in data set [3], 10.3 ± 0.25 µM; in data set [4], 7.96 ± 0.1 µM.
Regarding `COC(=O)[C@]1(C)CCC[C@]2(C)c3cc(O)c(C(=O)/C=C/c4ccnc5ccccc45)cc3CCC12` (stereo partly drawn) [Compound 40, (1R,4aS)-methyl 6-hydroxy-1,4a-dimethyl-7-((E)-3-(quinolin-4-yl)acryloyl)-1,2,3,4,4a, 9,10,10a-octahydrophenanthrene-1-carboxylate], the concentration for half-maximal inhibition (IC50) was greater than 75 µM in data set [1] (Homo sapiens); greater than 75 µM in data set [2] (Homo sapiens, MCF7); greater than 75 µM in data set [3] (Homo sapiens, Hs-578T); 92.1 ± 5.47 µM in data set [4] (Fibroblast).
Turning to `COC(=O)[C@]1(C)CCC[C@]2(C)c3cc(O)c(C(=O)/C=C/c4ccncc4)cc3CCC12` (stereo partly drawn) [Compound 35, (1R,4aS)-methyl 6-hydroxy-1,4a-dimethyl-7-((E)-3-(pyridin-4-yl)acryloyl)-1,2,3,4,4a, 9,10,10a-octahydrophenanthrene-1-carboxylate], the “Selectivity Index for MDA-MB-231” value in data set [1] was determined as 0.91. Besides, the IC50 turned out to be 37.1 ± 1.82 µM in data set [1] (Homo sapiens); 9.9 ± 0.05 µM in data set [2] (Homo sapiens, MCF7); 8.69 ± 0.55 µM in data set [3] (Homo sapiens, Hs-578T); 33.8 ± 6.63 µM in data set [4] (Fibroblast). Besides, in data set [2], the “Selectivity Index for MCF-7” value is given as 3.42. Further, the “Selectivity Index for Hs578T” value in data set [3] was 3.89.
For the molecule “(1R,4aS)-methyl 6-hydroxy-1,4a-dimethyl-7-((E)-3-(2,4,5-trifluorophenyl)acryloyl)-1,2,3,4,4a,9,10,10a-octahydrophenanthrene-1-carboxylate [Compound 36]”, the IC50 in data set [1], in data set [2] and in data set [3] was greater than 75 µM throughout.
With “(1R,4aS)-methyl 6-hydroxy-1,4a-dimethyl-7-((E)-3-oxo-3-(pyridin-3-yl)prop-1-en-1-yl)-1,2,3,4,4a,9,10,10a-octahydrophenanthrene-1-carboxylate [Compound 50]”, the IC50 was greater than 75 µM in data set [1], greater than 75 µM in data set [2], greater than 75 µM in data set [3] and 192 ± 51.4 µM in data set [4].
Consider “(1R,4aS)-methyl 7-((E)-3-(2-hydroxyphenyl)-3-oxoprop-1-en-1-yl)-6-methoxy-1,4a-dimethyl-1,2,3,4,4a,9,10,10a-octahydrophenanthrene-1-carboxylate [Compound 31]”, for which the half-maximal inhibitory concentration (IC50) in data set [1] is greater than 75 µM; in data set [2], 23.9 ± 4.47 µM; in data set [3], greater than 75 µM.
